In assay [1] the target is Tyrosine-protein kinase SYK (Homo sapiens, UniProt P43405). Put plainly: Selectivity interaction (ProQinase) EUB0000171b SYK.
In assay [2] the target is Tyrosine-protein kinase receptor Tie-1 (Homo sapiens) (UniProt P35590). Put plainly: Selectivity interaction (Ambit KINOMEscan and KiNATiv profiling in Jurkat cells) EUB0000090b TIE1. In kind it is cell-based. Particulars: at 1 µM.
The target in assay [3] is Fibroblast growth factor receptor 2 (Homo sapiens) (UniProt P21802). Nature of the assay: Selectivity interaction (KinomeScan (DiscoverX)) EUB0001049a FGFR2. Particulars: at 1 µM.
The target of assay [4] is Serine/threonine-protein kinase MRCK alpha (Homo sapiens) (UniProt Q5VT25). Put plainly: Selectivity interaction (KinomeScan (DiscoverX)) EUB0000695a CDC42BPA. Particulars: at 100 nM.
Sequence of Serine/threonine-protein kinase MRCK alpha (Homo sapiens) (Q5VT25 whole entry): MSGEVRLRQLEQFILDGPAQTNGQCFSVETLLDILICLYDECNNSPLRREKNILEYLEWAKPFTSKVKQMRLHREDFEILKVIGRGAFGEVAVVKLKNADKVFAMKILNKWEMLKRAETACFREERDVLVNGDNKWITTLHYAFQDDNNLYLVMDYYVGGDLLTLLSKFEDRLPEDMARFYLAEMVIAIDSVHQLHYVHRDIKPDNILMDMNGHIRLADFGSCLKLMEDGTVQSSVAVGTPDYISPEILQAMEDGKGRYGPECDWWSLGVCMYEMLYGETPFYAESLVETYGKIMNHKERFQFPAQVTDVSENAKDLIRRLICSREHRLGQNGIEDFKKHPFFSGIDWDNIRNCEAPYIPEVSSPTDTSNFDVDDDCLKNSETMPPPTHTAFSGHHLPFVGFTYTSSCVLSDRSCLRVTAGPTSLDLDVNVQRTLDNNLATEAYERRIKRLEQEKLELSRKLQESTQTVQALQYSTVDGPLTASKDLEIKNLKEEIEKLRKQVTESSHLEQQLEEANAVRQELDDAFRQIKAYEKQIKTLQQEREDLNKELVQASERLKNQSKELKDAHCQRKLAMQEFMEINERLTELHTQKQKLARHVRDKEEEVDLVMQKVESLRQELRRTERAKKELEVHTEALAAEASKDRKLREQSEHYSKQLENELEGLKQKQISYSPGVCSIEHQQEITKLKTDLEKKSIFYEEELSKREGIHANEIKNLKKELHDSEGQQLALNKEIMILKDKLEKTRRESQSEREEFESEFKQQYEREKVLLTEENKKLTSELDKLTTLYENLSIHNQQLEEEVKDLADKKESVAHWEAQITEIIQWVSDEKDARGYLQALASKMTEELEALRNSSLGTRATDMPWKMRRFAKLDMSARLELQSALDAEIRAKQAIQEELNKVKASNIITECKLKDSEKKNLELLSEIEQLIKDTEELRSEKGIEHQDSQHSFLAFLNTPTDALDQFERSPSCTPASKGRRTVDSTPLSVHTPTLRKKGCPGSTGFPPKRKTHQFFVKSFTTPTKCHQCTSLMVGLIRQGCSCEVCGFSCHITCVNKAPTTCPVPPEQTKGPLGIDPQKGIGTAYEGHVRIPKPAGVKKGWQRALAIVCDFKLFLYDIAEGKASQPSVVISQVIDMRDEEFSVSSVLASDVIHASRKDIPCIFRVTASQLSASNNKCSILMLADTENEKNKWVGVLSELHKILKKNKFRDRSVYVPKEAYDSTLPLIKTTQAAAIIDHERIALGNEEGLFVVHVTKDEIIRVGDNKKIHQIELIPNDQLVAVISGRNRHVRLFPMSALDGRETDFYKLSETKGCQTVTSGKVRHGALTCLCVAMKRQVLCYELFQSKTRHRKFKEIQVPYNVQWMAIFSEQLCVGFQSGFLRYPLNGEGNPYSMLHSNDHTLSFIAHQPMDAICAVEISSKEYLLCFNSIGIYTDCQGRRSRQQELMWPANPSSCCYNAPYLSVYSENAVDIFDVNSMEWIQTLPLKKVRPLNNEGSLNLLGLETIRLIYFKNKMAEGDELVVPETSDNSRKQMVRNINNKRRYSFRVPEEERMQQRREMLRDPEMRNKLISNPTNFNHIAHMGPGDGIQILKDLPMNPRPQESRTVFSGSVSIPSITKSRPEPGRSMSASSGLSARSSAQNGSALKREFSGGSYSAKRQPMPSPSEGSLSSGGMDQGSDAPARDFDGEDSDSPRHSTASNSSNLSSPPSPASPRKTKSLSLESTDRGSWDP
The target in assay [5] is Bone morphogenetic protein receptor type-1B (Homo sapiens, UniProt O00238). Put plainly: Selectivity interaction (KinomeScan (DiscoverX)) EUB0000666a BMPR1B. Conditions: at 10 µM.
In assay [6] the target is Ribosomal protein S6 kinase alpha-6 (Homo sapiens, UniProt Q9UK32). Nature of the assay: Selectivity interaction (KinomeScan (DiscoverX)) EUB0000229b RPS6KA6. Conditions: at 10 µM.
Assay [7] addresses T1, Peripheral plasma membrane protein CASK (Homo sapiens) (UniProt O14936).
T1 sequence (whole entry): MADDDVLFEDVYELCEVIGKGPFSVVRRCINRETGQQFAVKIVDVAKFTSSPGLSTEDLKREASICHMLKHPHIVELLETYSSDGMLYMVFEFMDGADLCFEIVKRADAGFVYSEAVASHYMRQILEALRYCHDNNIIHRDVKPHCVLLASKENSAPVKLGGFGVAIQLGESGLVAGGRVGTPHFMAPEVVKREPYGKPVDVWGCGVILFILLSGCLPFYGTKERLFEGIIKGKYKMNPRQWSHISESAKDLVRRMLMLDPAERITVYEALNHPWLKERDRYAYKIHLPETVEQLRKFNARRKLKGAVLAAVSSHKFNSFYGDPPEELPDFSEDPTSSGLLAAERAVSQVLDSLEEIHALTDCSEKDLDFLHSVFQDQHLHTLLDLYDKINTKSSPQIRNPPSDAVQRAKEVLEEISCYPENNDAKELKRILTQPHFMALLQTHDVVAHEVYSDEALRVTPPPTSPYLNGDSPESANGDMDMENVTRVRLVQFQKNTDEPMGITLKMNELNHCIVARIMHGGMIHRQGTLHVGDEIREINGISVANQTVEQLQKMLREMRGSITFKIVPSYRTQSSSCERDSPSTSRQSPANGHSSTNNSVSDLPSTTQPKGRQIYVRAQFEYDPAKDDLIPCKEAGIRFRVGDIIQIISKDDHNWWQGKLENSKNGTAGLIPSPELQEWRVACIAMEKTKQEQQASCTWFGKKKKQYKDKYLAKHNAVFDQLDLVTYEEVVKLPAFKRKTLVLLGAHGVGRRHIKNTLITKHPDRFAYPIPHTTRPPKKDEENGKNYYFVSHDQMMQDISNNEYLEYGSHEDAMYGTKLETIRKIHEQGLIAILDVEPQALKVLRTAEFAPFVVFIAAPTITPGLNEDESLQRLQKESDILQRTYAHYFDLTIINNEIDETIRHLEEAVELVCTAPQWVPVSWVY
Put plainly: Selectivity interaction (Kinase panel (DSF assay)) EUB0001559a CASK.

For assay [8], the target named is Serine/threonine-protein kinase PLK3 (Homo sapiens, UniProt Q9H4B4). Put plainly: Selectivity interaction (KinomeScan (DiscoverX)) EUB0000595a PLK3. Particulars: at 10 µM.
Sequence of Serine/threonine-protein kinase PLK3 (Q9H4B4 whole entry, looked up): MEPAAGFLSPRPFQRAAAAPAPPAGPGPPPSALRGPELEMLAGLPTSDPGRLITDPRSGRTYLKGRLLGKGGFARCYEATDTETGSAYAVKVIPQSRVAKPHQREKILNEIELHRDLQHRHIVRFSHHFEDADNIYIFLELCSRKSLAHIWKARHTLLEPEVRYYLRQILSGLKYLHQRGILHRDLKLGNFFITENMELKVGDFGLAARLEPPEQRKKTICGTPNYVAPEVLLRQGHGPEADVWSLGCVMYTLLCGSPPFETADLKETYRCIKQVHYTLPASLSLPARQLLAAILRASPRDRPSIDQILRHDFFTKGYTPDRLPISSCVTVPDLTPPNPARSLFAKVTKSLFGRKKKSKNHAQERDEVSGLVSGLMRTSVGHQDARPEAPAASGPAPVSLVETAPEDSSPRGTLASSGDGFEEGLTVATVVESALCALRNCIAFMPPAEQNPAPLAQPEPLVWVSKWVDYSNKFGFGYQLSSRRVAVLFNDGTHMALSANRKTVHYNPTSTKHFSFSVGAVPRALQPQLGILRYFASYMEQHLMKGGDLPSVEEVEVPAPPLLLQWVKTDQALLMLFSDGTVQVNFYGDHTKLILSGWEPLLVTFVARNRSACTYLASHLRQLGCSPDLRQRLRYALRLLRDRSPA
Assay [9] addresses Serine/threonine-protein kinase SIK3 (Homo sapiens) (UniProt Q9Y2K2). Put plainly: Selectivity interaction (ActivX KiNativ screen (ex vivo kinase selectivity in human PBMCs)) EUB0001619a SIK3. In kind it is cell-based. Conditions: PBMC, at 1 µM.
For assay [10], the target named is T2, Serine/threonine-protein kinase TAO1 (Homo sapiens) (UniProt Q7L7X3).
T2 sequence (whole entry): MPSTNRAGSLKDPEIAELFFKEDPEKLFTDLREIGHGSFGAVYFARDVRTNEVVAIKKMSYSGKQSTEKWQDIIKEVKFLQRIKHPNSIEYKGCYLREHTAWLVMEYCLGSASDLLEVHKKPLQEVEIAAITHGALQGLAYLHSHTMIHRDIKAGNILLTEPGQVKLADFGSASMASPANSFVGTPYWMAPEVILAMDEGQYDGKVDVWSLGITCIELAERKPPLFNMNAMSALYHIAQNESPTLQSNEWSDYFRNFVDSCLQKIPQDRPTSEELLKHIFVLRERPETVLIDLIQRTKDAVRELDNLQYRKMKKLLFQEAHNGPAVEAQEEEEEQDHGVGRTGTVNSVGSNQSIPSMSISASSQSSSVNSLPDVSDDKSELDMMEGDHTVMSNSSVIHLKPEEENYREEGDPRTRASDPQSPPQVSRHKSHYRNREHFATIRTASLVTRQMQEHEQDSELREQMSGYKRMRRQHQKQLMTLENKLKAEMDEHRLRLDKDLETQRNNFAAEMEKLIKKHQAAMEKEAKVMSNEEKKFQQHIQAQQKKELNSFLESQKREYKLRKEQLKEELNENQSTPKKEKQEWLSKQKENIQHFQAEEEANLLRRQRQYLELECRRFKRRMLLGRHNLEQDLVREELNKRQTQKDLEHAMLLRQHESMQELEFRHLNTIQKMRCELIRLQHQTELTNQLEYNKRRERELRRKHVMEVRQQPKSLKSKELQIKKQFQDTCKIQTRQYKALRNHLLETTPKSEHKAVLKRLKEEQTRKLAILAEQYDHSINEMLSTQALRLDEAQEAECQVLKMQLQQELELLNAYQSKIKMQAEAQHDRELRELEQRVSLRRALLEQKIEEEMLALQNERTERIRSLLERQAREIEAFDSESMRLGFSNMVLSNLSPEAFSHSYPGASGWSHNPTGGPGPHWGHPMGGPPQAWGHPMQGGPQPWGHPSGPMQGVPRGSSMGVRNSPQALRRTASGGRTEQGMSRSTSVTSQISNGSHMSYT
Put plainly: Selectivity interaction (KinomeScan (DiscoverX)) EUB0001619a TAOK1. Particulars: at 1 µM.

The target of assay [11] is Calcium/calmodulin-dependent protein kinase type II subunit delta (Homo sapiens) (UniProt Q13557). Put plainly: Selectivity interaction (Kinase panel (KiNativ target engagement assay in Jurkat cells)) EUB0001635a CAMK2D. In kind it is cell-based. Particulars: Selectivity number of off-targets 0.0, Selectivity number of targets 233.0, Source Knowledge https://www.sciencedirect.com/science/article/pii/S2451945619300674?via%3Dihub, at 1 µM.

For assay [12], the target named is Serine/threonine-protein kinase Nek6 (Homo sapiens) (UniProt Q9HC98). Nature of the assay: Selectivity interaction (KinomeScan (DiscoverX)) EUB0000618a NEK6. Particulars: at 10 µM.

Experimental findings from ChEMBL document CHEMBL5465560, “Selectivity Literature for EUbOPEN Chemogenomic Library” (2024) are described below.

Sequence of Tyrosine-protein kinase receptor Tie-1 (Homo sapiens) (P35590 whole entry): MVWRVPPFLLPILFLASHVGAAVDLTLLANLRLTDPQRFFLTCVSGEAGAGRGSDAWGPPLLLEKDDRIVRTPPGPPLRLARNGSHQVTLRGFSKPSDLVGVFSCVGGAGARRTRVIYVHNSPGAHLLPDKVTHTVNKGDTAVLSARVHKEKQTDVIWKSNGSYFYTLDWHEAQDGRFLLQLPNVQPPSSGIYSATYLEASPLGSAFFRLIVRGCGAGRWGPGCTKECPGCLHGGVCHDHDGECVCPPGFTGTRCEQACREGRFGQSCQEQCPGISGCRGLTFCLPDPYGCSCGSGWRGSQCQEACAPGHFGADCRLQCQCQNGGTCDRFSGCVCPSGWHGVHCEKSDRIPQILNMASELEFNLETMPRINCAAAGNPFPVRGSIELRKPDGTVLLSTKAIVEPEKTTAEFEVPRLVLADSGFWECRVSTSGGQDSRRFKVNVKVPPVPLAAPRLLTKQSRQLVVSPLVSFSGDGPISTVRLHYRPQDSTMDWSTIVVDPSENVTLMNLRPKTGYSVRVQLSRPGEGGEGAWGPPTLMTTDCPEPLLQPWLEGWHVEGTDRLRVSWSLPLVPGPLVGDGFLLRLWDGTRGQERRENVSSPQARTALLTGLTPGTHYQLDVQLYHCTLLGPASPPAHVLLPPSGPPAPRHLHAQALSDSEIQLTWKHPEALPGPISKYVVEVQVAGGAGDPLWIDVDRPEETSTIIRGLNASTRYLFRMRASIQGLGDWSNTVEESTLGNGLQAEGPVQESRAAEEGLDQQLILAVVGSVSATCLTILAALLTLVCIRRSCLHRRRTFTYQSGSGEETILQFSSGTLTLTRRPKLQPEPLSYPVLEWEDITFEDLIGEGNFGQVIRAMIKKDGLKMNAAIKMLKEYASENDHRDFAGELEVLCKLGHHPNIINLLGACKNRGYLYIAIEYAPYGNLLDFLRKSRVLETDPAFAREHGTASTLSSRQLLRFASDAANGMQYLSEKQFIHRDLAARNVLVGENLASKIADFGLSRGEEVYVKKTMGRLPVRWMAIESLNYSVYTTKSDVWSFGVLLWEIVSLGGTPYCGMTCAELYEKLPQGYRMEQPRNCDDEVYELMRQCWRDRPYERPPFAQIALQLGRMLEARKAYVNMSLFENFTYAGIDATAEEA
Sequence of Serine/threonine-protein kinase SIK3 (Homo sapiens) (Q9Y2K2 whole entry, looked up): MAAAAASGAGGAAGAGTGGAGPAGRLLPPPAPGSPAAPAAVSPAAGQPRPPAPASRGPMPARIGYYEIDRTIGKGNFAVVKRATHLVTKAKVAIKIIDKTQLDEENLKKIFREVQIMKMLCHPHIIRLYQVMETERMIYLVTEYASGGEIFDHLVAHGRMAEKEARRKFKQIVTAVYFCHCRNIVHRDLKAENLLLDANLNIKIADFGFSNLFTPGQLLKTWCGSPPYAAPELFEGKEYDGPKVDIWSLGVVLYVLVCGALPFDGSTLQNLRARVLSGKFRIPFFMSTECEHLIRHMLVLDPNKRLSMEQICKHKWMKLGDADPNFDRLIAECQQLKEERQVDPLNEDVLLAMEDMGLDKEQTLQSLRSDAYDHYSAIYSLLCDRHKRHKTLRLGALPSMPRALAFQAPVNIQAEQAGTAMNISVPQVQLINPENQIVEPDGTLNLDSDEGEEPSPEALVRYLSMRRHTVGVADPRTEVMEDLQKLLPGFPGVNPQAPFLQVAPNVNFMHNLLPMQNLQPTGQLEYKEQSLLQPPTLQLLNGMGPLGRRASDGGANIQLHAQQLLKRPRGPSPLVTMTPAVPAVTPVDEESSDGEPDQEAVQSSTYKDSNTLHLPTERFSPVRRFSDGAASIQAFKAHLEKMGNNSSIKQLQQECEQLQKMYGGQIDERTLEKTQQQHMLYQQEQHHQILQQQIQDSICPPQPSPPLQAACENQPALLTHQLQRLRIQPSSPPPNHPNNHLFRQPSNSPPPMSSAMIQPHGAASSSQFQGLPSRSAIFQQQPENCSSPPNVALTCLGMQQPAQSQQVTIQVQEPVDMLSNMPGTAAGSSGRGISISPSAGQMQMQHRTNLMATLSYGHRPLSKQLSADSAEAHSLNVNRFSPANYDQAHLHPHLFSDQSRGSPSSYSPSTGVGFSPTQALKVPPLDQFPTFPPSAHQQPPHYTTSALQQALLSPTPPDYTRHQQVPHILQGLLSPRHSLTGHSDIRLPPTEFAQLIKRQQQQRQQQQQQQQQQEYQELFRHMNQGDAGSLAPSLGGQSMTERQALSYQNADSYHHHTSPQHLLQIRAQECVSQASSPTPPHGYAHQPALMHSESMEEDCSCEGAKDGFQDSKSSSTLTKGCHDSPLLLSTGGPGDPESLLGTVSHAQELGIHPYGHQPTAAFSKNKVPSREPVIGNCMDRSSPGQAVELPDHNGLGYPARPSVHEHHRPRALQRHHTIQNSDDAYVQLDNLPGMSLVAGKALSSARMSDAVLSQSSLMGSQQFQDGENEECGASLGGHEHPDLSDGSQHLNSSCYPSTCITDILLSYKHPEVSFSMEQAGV

For the molecule `C=CC(=O)Nc1cccc(C(=O)Nc2ccc(Nc3cc(-c4[nH]c(SC)nc4C)ccn3)cc2)c1`, the % of control came out at 94% in assay [1] (at 1 µM) and 86% in assay [1] (at 5 µM).

`CN(C)C/C=C/C(=O)Nc1ccc(C(=O)N2CCCC(Nc3ncc(Cl)c(-c4c[nH]c5ccccc45)n3)C2)cc1` (stereo not drawn) yielded a % of control in [2] of 96%.

Take `COc1cc(Nc2nc(C)cc(-c3cnn4nc(OC)ccc34)n2)cc(C(F)(F)F)c1`: the % of control in [3] came to 90%.

For `Cc1cc(F)c(C(=O)Nc2cccc(-c3nncn3C(C)C)n2)cc1-n1cnc(C2CC2)c1`, in assay [4], the % of control amounted to 100%.

In turn, `O=C(NOC[C@H](O)CO)c1ccc(F)c(F)c1Nc1ccc(I)cc1F` had a % of control in assay [5] of 100%.

`COc1cc(N(C)c2ccnc3ccc(C(F)(F)F)cc23)cc(OC)c1OC`: the % binding in assay [6] came to 81%.

Regarding `CN(C(=O)c1cnn2cccnc12)c1cc2c(cc1N1CCOCC1)C(=O)N(C[C@@H](F)C(C)(C)O)C2`, the dTM in assay [7] was 0 K.

Consider `COCC(=O)NC/C=C/c1ccc2ncnc(Nc3ccc(Oc4ccc(C)nc4)c(C)c3)c2c1` [CP-724714], for which the % of control in [8] was determined as 99%.

Consider `N#Cc1cccc(-c2c[nH]c3ncnc(N4CCOCC4)c23)c1`, for which, in assay [9], the % of inhibition was 14%. In [10], this molecule came in with a % of control of 6.4%.

On to `C=CC(=O)Nc1ccc(C(=O)Nc2[nH]nc3c2CN(C(=O)N[C@H](CN(C)C)c2ccccc2)C3(C)C)cc1`, for which the % of engagement in assay [11] turned out to be 34.1%.

Regarding `O[C@H]1CC[C@H](Nc2ncc3nc(Nc4c(F)cc(F)cc4F)n([C@H]4CCOC4)c3n2)CC1`, the % of control in [12] came out at 100%.
